Source: paper PMC9413440, “An Iterative Approach Guides Discovery of the FabI Inhibitor Fabimycin, a Late-Stage Antibiotic Candidate with In Vivo Efficacy against Drug-Resistant Gram-Negative Infections” (ACS Central Science, 2022)
Values after ≈ are worked out from the molar mass of the structure shown. Like-named read-outs stand apart in the source and are kept apart here.

Tests used:
Format in all cases: cell-based
[1] = system: Vancomycin-resistant Enterococcus (VRE); experiment: MIC, vancomycin-resistant Enterococcus strains
Experimental: (§1) II. Materials and Methods for Biological Experiments
(§2) S. aureus ATCC 29213 and E. coli MG1655 were obtained from the American Type Culture Collection (ATCC). E. coli BW25113 and E. coli JW5503 were obtained from the Keio Collection. AR-bank strains were obtained from the Centers for Disease Control and Prevention and FDA Antibiotic Resistance Isolate Bank.
(§3) Antimicrobial susceptibility tests
(§4) Susceptibility testing was performed in biological triplicate, unless noted otherwise, using the micro-dilution broth method as outlined by the Clinical and Laboratory Standards Institute. Bacteria were cultured with cation-adjusted Mueller Hinton broth (Sigma Aldrich, catalogue number: 90922). […]
(§5) NH3: m/z 391.2 → 171.0. Fabimycin: m/z 405.3 → 145.3. Power analysis was not used to determine the number of replicates. Error bars represent the standard error of the mean of three biological replicates. All compounds evaluated in biological assays were ≥95% pure.

[2] = system: E. coli MG1655 FabI mutants; experiment: MIC of fabimycin-resistant mutants; settings: Escherichia coli
Experimental: as §1, §2, §3, §4
(§6) Error bars represent the standard error of the mean of three biological replicates. All compounds evaluated in biological assays were ≥95% pure.
(§7) Selection of resistant mutants
(§8) Resistant mutants were generated using the large inoculum method. Briefly, S. aureus 29213, E. coli MG1655, and A. baumannii 19606 (~1 x 1010 CFUs) was plated on 100-mm plates (E. coli and A. baumannii) or 150-mm plates (S. aureus) of MH agar containing either 128, 64, or 32 µg/mL fabimycin (for gram-negatives) or 0.125, 0.062, and 0.031 µg/mL fabimycin (for S. aureus). Plates were incubated at 37 °C for 48 h and counted for the presence of colony forming units.
(§9) Glycerol stocks of selected colonies were made, and resistant colonies confirmed by growing on agar plates containing the same concentration of fabimycin that they were generated at.
(§10) Sequencing of bacterial fabI
(§11) The FabI gene was amplified by PCR. Fabimycin-resistant colonies were picked and diluted in 100 µL sterile, nuclease-free H2O. PCR reactions were then set up by combining 14 µL H2O, 1 µL 20 µM primer mix, 10 µL template (bacteria solution in H2O), and 25 µL MiFi Mix (Bioline). The reaction was performed on a C1000 Thermal Cycler (Bio-Rad) under the following conditions for 35 cycles: initial denature: 95 °C for 3 min; denature 95 °C for 15 s; anneal: 57 °C for 15 s; extend 72 °C for 30 s; final extend: 72 °C for 3 min. A 10 µL portion of PCR reaction mixture was analyzed by agarose gel electrophoresis to confirm the single 1.4-kilobase pair product. PCR products were purified using a GeneJET PCR Purification Kit (Thermo Fischer Scientific). PCR amplicons were submitted to the Core DNA Sequencing Facility at the University of Illinois at Urbana-Champaign for Sanger sequencing with overlapping internal primers. All primers were obtained from Integrated DNA Technologies.
(§12) Primers for sequencing of fabI gene in select pathogens: […]
(§13) Organism Sequence Reference
(§14) Forward 5’-GGG-GCC-AGC-GTT-TCT-TTT-TC-3‘ Parker, 20203
(§15) Reverse 5’-AAA-CAT-GGA-GAC-GGT-GCT-GG
(§16) Forward 5’-GTG-AGA-TCG-GCA-TGA-CAC-AA-3’ Lin, 20179
(§17) Reverse 5’-CTG-AAG-TCC-GCT-ACC-GTT-AT-3’
(§18) Compound stability in mammalian plasma
(§19) Candidate drugs were incubated with plasma and parent drug levels were monitored at various time points (generally t=0, 10, 20, 30, and 60 minutes) to determine the drug’s half-life in the presence of the chosen system. Each drug is tested in duplicate. Compounds were diluted from 10 mM DMSO stocks to 1 µM in a 100 mM pH 7.4 phosphate buffer and incubated at 37 °C with 0.5 mg/mL of human, rat, or mouse plasma (BioreclamationIVT, Baltimore, MD). Time points were collected at 0 min (after addition of drug), 15 min, 30 min, 60 min, and 120 min following quenching with an equal volume of acetonitrile. The supernatant was collected after centrifugation, and the sample analyzed by LC-MS where the percentage of compound remaining is plotted vs time to determine the drug’s half-life.
(§20) Compound plasma protein binding
(§21) Candidate drugs were incubated with plasma and parent drug levels are monitored after 4 hours to determine the drug’s free concentration in the presence of the plasma proteins. The standard assay involves equilibrium dialysis, in which compound is allowed to equilibrate between a protein-containing compartment from a protein-free compartment. Each

[3] = system: A. baumannii 19606 FabI mutants; experiment: MIC of fabimycin-resistant mutants; settings: Acinetobacter baumannii
Experimental: as §1, §2, §3, §4, §6, §7, §8, §9, §10, §11, §12, §13, §14, §15, §16, §17, §18, §19, §20, §21

[4] = system: Lactobacillus reuteri ATCC 23272; experiment: MIC, commensal bacteria; settings: Limosilactobacillus reuteri, ATCC23272
Experimental: as §1, §2, §3, §4, §5

[5] = system: Enterococcus faecalis KLE 2341; experiment: MIC, commensal bacteria; settings: KLE2341
Experimental: as §1, §2, §3, §4, §5

[6] = system: Bacteroides cellulosilyticus KLE 2342; experiment: MIC, commensal bacteria; settings: KLE2342
Experimental: as §1, §2, §3, §4, §5

[7] = system: Faecalibacterium prausnitzii ATCC 27768; experiment: MIC, commensal bacteria; settings: ATCC27768
Experimental: as §1, §2, §3, §4, §5

[8] = system: Blautia producta ATCC 27340; experiment: MIC, commensal bacteria; settings: ATCC27340
Experimental: as §1, §2, §3, §4, §5

[9] = system: Bifidobacterium longum ATCC BAA999; experiment: MIC, commensal bacteria; settings: ATCCBAA999
Experimental: as §1, §2, §3, §4, §5

[10] = system: Streptococcus parasanguinis KLE 2375; experiment: MIC, commensal bacteria; settings: KLE2375
Experimental: as §1, §2, §3, §4, §5

[11] = system: Bacteroides vulgatus KLE 2303; experiment: MIC, commensal bacteria; settings: Phocaeicola vulgatus, KLE2303
Experimental: as §1, §2, §3, §4, §5

Cc1c(CN(C)C(=O)/C=C/c2cnc3c(c2)CC[C@H](N)C(=O)N3)oc2ccccc12 [fabimycin] was tested, and the MIC ([1]; ATCC 1593 / VRE) was 128 µg/mL (≈ 316 µM), the MIC ([1]; ATCC 1768 / VRE) was over 128 µg/mL and the MIC ([1]; ATCC 2059 / VRE, VRE ATCC 2059, read-out: MIC) was 64 µg/mL (≈ 158 µM). It also gave an MIC ([1]; ATCC 2431 / VRE) of over 128 µg/mL, an MIC ([1]; ATCC 2574 / VRE) of over 128 µg/mL and an MIC ([1]; ATCC 3053 / VRE, VRE ATCC 3053, read-out: MIC) of 64 µg/mL (≈ 158 µM). For the same compound, the MIC ([1]; ATCC 3183 / VRE, VRE ATCC 3183, read-out: MIC) was 64 µg/mL (≈ 158 µM), the MIC ([1]; ATCC 3190 / VRE) was over 128 µg/mL and the MIC ([1]; ATCC 3191 / VRE) was 128 µg/mL (≈ 316 µM). For the same compound, the MIC ([1]; ATCC 29212 / VRE) was 128 µg/mL (≈ 316 µM), the MIC ([2]; MG1655, FabI mutation G148S, plated at 16x MIC (32 μg/mL), colonies 2/5, read-out: MIC of mutants) was at least 128 µg/mL and the MIC ([2]; MG1655, read-out: MIC of mutants, FabI mutation G148A, plated at 8x MIC (16 μg/mL), colonies 3/5) was 32 to 64 µg/mL. It also gave an MIC ([2]; MG1655, read-out: MIC of mutants, FabI mutation G148A, plated at 16x MIC (32 μg/mL), colonies 3/5) of 64 µg/mL, an MIC ([2]; MG1655, read-out: MIC of mutants, FabI mutation G148S, plated at 8x MIC (16 μg/mL), colonies 1/5) of 128 µg/mL and an MIC ([2]; MG1655, read-out: MIC of mutants, FabI mutation M159T, plated at 8x MIC (16 μg/mL), colonies 1/5) of 32 µg/mL. The MIC ([3]; FabI mutation A118T, plated at 16x MIC (32 μg/mL), colonies 4/5, read-out: MIC of mutants) was 64 to 128 µg/mL, the MIC ([3]; FabI mutation N160K, plated at 16x MIC (32 μg/mL), colonies 1/5, read-out: MIC of mutants) was 128 µg/mL and the MIC ([3]; read-out: MIC of mutants, FabI WT, plated at 8x MIC (16 μg/mL), colonies 2/5) was 8 to 16 µg/mL. The MIC ([3]; read-out: MIC of mutants, FabI mutation A118T, plated at 32x MIC (64 μg/mL), colonies 4/5) was 64 µg/mL, the MIC ([3]; read-out: MIC of mutants, FabI mutation A118V, plated at 8x MIC (16 μg/mL), colonies 1/5) was 128 µg/mL and the MIC ([3]; read-out: MIC of mutants, FabI mutation F206L, plated at 8x MIC (16 μg/mL), colonies 1/5) was 32 µg/mL. It also gave an MIC ([3]; read-out: MIC of mutants, FabI mutation G151S, plated at 32x MIC (64 μg/mL), colonies 1/5) of 64 µg/mL, an MIC ([3]; read-out: MIC of mutants, FabI mutation M162T, plated at 8x MIC (16 μg/mL), colonies 1/5) of 128 µg/mL and an MIC [4] of 64 µg/mL (≈ 158 µM). For the same compound, the MIC [5] was over 128 µg/mL, the MIC [6] was over 128 µg/mL and the MIC [7] was over 128 µg/mL. For the same compound, the MIC [8] was over 128 µg/mL, the MIC [9] was over 128 µg/mL and the MIC [10] was 128 µg/mL (≈ 316 µM). The MIC [11] was over 128 µg/mL.
